Measured values as given in patent publication US9527847B2, “Treatment of lupus, fibrotic conditions, and inflammatory myopathies and other disorders using PI3 kinase inhibitors” (INFINITY PHARMACEUTICALS, INC., priority 2012, dated 2016).
Where “and” joins values, the source holds several entries; their conditions need not be identical. Identical values can stand only once.

Assays:
R848 induced cytokines = assay: R848 induced cytokine production in PBMCs; type: cell-based, human
Description: (§1) These experiments were conducted using PBMCs.

mouse EAE model = assay: Experimental Autoimmune Encephalomyelitis (EAE) model, semi-therapeutic, 28 day; type: in vivo; conditions: for End % body weight +/− SD: Day 27 relative to Day −1; for End score +/− SD: Day 28; for Mean day of EAE onset: after immunization, mice which developed EAE; for Inflammatory foci +/− SD: per spinal cord section; for Demyelination (LFB) +/− SD: score per section
Description: EAE was induced in 60 mice using Hooke Kit™ MOG35-55/CFA Emulsion PTX (Hooke Laboratories, Lawrence Mass.), catalog number EK-0110, lot number 0104, per manufacturer's recommended protocol, except that pertussis toxin was diluted with phosphate buffered saline to achieve 1.4× and 1.3× solution (starting from the 1.5× solution in the kit). This was done to optimize disease severity for this particular study.
Mice were injected subcutaneously, at two sites in the back, with the emulsion component of the kit (containing MOG35-55). One site of injection was in the area of the upper back, approximately 1 cm caudal of the neck line. The second site was in the area of the lower back, approximately 2 cm cranial of the base of the tail. Injection volume was 0.1 mL at each site. Within 2 hours of the injection of emulsion, and then again 24 hours after the injection of emulsion, the pertussis toxin component of the kit was administered intraperitoneally. Volume of each injection was 0.1 mL.
Vehicle for Group 2 (FTY720) was water and 2% ethanol. Vehicle for all other groups was water, 0.5% CMC (low viscosity), and 0.05% Tween80. Mice were dosed at the same time every day, +/−1 hour. The last day of dosing was Day 27 after immunization.
Readouts were EAE scores and changes in body weight. Mice were scored daily from Day 7 to Day 28, and body weights were measured three times/week (Monday, Wednesday and Friday), starting on Day −1.
EAE was scored on scale 0 to 5: • 0 No obvious changes in motor functions of the mouse in comparison to non-immunized mice. When picked up by the tail, the tail has tension and is erect. Hind legs are usually spread apart. When the mouse is walking, there is no gait or head tilting. • 1 Limp tail. When the mouse is picked up by the tail, instead of being erect, the whole tail drapes over finger. • 2 Limp tail and weakness of hind legs. When mouse is picked up by tail, legs are not spread apart, but held closer together. When the mouse is observed walking, it has a clearly apparent wobbly walk. • 3 Limp tail and complete paralysis of hind legs (most common); or limp tail with paralysis of one front and one hind leg; or all of: severe head tilting, walking only along the edges of the cage, pushing against the cage wall, and spinning when picked up by the tail. • 4 Limp tail, complete hind leg and partial front leg paralysis. Mouse is minimally moving around the cage but appears alert and feeding Usually, euthanasia is recommended after the mouse scores level 4 for 2 days. When the mouse is euthanized because of severe paralysis, score of 5 is entered for that mouse for the rest of the experiment. • 5 Complete hind and complete front leg paralysis, no movement around the cage; or mouse is spontaneously rolling in the cage; or mouse is found dead due to paralysis.
At the end of the study 3 luxol fast blue (LFB) stained sections and 3 H&E sections, from lumbar, thoracic, and cervical spinal cord of all mice in Groups 1, 2, 3, and 6 and the 3 naïve mice were prepared and analyzed.
Inflammatory foci were counted in each H&E stained section. Each group of approximately 20 cells was counted as one focus. Foci larger than 20 cells were counted based on an estimate of how many foci of 20 cells were present.
The demyelination score represents an estimate of demyelinated area for each section as follows. For LFB stained slides, the demyelinated area was estimated based on intensity of blue staining of myelin. For H&E stained sections, demyelinated area was estimated by looking for interruption of normal structure—pallor and vacuolation consistent with edema and demyelination, and dilated axons. • 0—no demyelination (less than 5% demyelinated area) • 1—5 to 20% demyelinated area • 2—20 to 40% demyelinated area • 3—40 to 60% demyelinated area • 4—60 to 80% demyelinated area • 5—80 to 100% demyelinated area.
The number of apoptotic cells in each of the three H&E sections was determined.

[1] = system: PI3K-δ specific basophil activation; assay: Anti-fCER1 BAT (delta), basophil activation in human whole blood; type: cell-based; conditions: Table 5
LPS induced cytokines = assay: LPS induced cytokine production in PBMCs; type: cell-based, human
Description: as §1

[2] = system: Human T-cell proliferation; assay: Human T-cell proliferation; type: cell-based
PI3K-δ = PI3K-δ (Homo sapiens, UniProt O00329); assay: One exemplary assay, PI3K-δ activity; type: biochemical; conditions: overall, several assays
[3] = system: Murine B-cell proliferation; assay: Murine B-cell proliferation; type: cell-based; conditions: Mus musculus
B cell proliferation = B cell proliferation EC50 (Table 3); type: cell-based; conditions: in vitro

Chain of PI3K-δ (O00329 whole entry, species assumed): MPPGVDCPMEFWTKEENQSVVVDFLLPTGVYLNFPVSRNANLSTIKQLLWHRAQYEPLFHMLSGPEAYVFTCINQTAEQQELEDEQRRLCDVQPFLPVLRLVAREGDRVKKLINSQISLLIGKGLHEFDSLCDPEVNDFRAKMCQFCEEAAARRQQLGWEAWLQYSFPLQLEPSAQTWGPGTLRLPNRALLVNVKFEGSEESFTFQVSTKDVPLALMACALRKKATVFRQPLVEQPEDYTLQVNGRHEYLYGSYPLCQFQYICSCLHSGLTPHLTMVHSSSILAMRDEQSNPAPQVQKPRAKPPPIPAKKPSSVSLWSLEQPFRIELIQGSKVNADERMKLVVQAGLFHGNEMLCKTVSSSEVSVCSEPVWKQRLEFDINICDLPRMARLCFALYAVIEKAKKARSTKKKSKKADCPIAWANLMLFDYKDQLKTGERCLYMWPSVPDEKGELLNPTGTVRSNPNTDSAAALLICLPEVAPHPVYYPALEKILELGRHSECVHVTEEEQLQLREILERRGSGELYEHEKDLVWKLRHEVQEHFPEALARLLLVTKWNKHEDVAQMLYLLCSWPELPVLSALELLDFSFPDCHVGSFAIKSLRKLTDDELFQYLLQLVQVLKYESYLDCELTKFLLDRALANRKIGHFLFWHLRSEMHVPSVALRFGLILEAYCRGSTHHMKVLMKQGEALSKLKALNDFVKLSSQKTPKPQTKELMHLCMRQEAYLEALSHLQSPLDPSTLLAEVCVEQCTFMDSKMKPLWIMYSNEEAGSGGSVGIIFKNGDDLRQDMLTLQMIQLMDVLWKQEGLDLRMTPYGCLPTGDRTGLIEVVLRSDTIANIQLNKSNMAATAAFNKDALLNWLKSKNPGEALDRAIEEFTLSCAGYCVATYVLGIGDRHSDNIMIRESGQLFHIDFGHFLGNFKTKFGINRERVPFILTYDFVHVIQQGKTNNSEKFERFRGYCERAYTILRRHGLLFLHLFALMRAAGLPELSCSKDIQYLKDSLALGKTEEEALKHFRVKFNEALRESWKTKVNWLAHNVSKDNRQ
Chain of PI3K-δ (P27986 whole entry partner, species assumed): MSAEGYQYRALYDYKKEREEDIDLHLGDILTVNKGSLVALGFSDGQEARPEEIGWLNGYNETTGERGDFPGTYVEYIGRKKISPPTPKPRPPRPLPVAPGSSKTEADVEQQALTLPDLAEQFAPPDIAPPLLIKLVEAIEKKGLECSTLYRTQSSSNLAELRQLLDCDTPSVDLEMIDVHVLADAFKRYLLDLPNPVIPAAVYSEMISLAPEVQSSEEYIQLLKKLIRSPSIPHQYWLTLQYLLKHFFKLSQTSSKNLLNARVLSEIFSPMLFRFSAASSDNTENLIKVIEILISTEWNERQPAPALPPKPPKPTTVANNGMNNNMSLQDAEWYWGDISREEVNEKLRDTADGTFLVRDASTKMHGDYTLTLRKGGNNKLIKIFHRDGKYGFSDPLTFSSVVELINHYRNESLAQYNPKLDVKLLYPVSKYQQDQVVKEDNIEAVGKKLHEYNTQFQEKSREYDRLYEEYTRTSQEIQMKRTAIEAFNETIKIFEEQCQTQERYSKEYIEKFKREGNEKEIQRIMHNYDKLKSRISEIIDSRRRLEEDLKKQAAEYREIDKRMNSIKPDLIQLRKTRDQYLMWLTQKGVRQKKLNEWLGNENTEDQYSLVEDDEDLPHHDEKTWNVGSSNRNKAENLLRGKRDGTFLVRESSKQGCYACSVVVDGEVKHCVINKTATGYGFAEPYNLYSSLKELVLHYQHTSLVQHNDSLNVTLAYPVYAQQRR

EC50 [1]: 78 nM
PI3K-δ inhibited at lower dose compared to PI3K-γ, PI3K-β or PI3K-α (PI3K-δ): at least 10 fold
SMILES: C[C@H](Nc1ncnc2[nH]cnc12)c1cc2cccc(Cl)c2c(=O)n1-c1ccccc1 [Compound 292]
R848 induced IFN-α (R848 induced cytokines): did not detectably affect
R848 induced IL-1 (R848 induced cytokines): slightly inhibited
R848 induced IL-6 (R848 induced cytokines): did not detectably affect
R848 induced IL-8 (R848 induced cytokines): did not detectably affect
R848 induced TNF-α (R848 induced cytokines): did not detectably affect
Apoptotic cells, average per section+/−SD (mouse EAE model; 0.3 mg/kg QD p.o.): 1.7+/−0.9
Demyelination score (H&E sections), average per section+/−SD (mouse EAE model; 0.3 mg/kg QD p.o.): 1.5+/−0.5
MMS +/− SD (mouse EAE model; 0.3 mg/kg QD p.o.): 2.50+/−0.85
Median Day of Onset (mouse EAE model; 0.3 mg/kg QD p.o.): 11.5 days
End % body weight +/− SD (mouse EAE model; 0.3 mg/kg QD p.o.): 96.1+/−11.8%
End score +/− SD (mouse EAE model; 0.3 mg/kg QD p.o.): 1.60+/−1.02
Mean day of EAE onset (mouse EAE model; 0.3 mg/kg QD p.o.): 11.3 ± 0.4 days
Inflammatory foci +/− SD (mouse EAE model; 0.3 mg/kg QD p.o.): 2.9+/−1.5
Demyelination (LFB) +/− SD (mouse EAE model; 0.3 mg/kg QD p.o.): 1.2+/−0.7
MMS +/− SD (mouse EAE model; 1 mg/kg QD p.o.): 2.70+/−0.72
Median Day of Onset (mouse EAE model; 1 mg/kg QD p.o.): 11 days and 11.0 days
End % body weight +/− SD (mouse EAE model; 1 mg/kg QD p.o.): 99.0+/−7.4%
End score +/− SD (mouse EAE model; 1 mg/kg QD p.o.): 1.40+/−0.81
Mean day of EAE onset (mouse EAE model; 1 mg/kg QD p.o.): 12.5 ± 1.0 days
MMS +/− SD (mouse EAE model; 3 mg/kg QD p.o.): 3.40+/−0.21
Median Day of Onset (mouse EAE model; 3 mg/kg QD p.o.): 12 days and 12.0 days
End % body weight +/− SD (mouse EAE model; 3 mg/kg QD p.o.): 87.7+/−6.4%
End score +/− SD (mouse EAE model; 3 mg/kg QD p.o.): 2.65+/−0.67
Mean day of EAE onset (mouse EAE model; 3 mg/kg QD p.o.): 12.1 ± 0.7 days
Apoptotic cells, average per section+/−SD (mouse EAE model; 10 mg/kg QD p.o.): 2.2+/−1.0
Demyelination score (H&E sections), average per section+/−SD (mouse EAE model; 10 mg/kg QD p.o.): 1.9+/−0.8
MMS +/− SD (mouse EAE model; 10 mg/kg QD p.o.): 2.55+/−0.76
Median Day of Onset (mouse EAE model; 10 mg/kg QD p.o.): 14 days and 14.0 days
End % body weight +/− SD (mouse EAE model; 10 mg/kg QD p.o.): 95.6+/−8.5%
End score +/− SD (mouse EAE model; 10 mg/kg QD p.o.): 1.65+/−0.85
Mean day of EAE onset (mouse EAE model; 10 mg/kg QD p.o.): 14.4 ± 1.5 days
Inflammatory foci +/− SD (mouse EAE model; 10 mg/kg QD p.o.): 5.2+/−3.2
Demyelination (LFB) +/− SD (mouse EAE model; 10 mg/kg QD p.o.): 1.6+/−0.8
LPS induced IL-1 production (LPS induced cytokines): enhanced
LPS induced IL-6 production (LPS induced cytokines): enhanced
LPS induced IL-8 production (LPS induced cytokines): did not detectably affect
LPS induced TNF-α production (LPS induced cytokines): enhanced
EC50 [2]: 9.5 nM
EC50 [3]: 0.5 nM
EC50 (B cell proliferation): < 100 nM
